The source of these data is patent US9381164B2, “Silk nanospheres and microspheres and methods of making same” (TRUSTEES OF TUFTS COLLEGE, priority 2009, dated 2016).

Counter-ions that a name gives are not always drawn. Like-named read-outs stand apart in the source and are kept apart here.

Data set [1] can be described thus: Cumulative drug release from silk spheres in PBS. Format: physicochemical. The note with it: for In vitro drug release: Microspheres, PVA blend film. Here is the method:
Silk spheres loaded with model drugs as described in Example 5 were lyophilized. 10 mg of lyophilized silk spheres were suspended in 1 ml of PBS buffer, pH 7.4. The samples were incubated at room temperature under slow shaking condition. A cumulative drug release profile at each different time point (1, 4, 8.5, 24, 48, 120, 192, 342 hr) was determined by following the steps of (a) centrifuging the samples at 12,000 rpm for 10 min with a Sigma ISS-113 microcentrifuge (Sigma Chemical Co., St. Louis, Mo.); (b) carefully transferring the supernatants to empty tubes, subjecting the collected supernatants to the absorbance measurement at a wavelength of 555 nm, calculating the amount of model drug based on a standard curve, and comparing the data at the current time point with the original amounted drug loaded in the spheres; (c) suspending the precipitated pellets in 1 ml of PBS buffer; and (d) repeating the steps of (a)-(c) at each time point to obtain a cumulative drug release profile. For each model drug, at least three samples were prepared in order to obtain a standard deviation.

The nature of data set [2]: Drug loading in silk spheres (supernatant absorbance at 555 nm). It is filed as physicochemical. Particulars: drug/silk 1:100; spheres from 1.0% silk/4.0% PVA blend. Here is the method: Tetramethylrhodamine conjugated bovine serum albumin (TMR-BSA, M.w.=66,000 Da), tetramethylrhodamine conjugated dextran (TMR-Dextran, M.w.=10,000 Da), and rhodamine B (RhB, M.w.=479 Da) were used as model drugs to study the drug loading in silk nano- and micro spheres. Stock solutions of drugs were prepared with a concentration of 5 mg/ml in PBS buffer, pH 7.4, and stored at −20° C. Certain amount of stock solution of drugs was added to silk fibroin solution, before the silk fibroin solution was prepared into silk nano- and micro spheres, to reach to a drug/silk ratio of 1:100 (weight ratio). After mixing, the drug loaded silk fibroin solution was used to blend with PVA solution following the steps described in the Example 2, without the sonication treatment. A 5 wt % of silk and PVA concentrations and a silk/PVA ratio of 1:4 were used in this example. At this concentration, the silk/PVA film with a silk/PVA ratio of 1/4 can generate silk spheres with narrower size distribution, perhaps because the blend film is easier to dissolve in water forming homogeneous sphere suspension.
To determine the amount of drug loading in silk spheres, the supernatants collected from the centrifugation steps were subjected to absorbance measurement at 555 nm. The amount of drug was calculated based on a standard curve obtained at the same condition. The amount of drug in silk spheres was calculated from the difference between the total amount used and the amount remained in the supernatants. For each drug loading, at least three samples were prepared in order to obtain a standard deviation. The pellets from the last step of centrifugation were suspended in 2 ml of PBS buffer, pH 7.4, and used for the following confocal microscopy and drug release studies in Example 6.

The conditions of data set [3]: cited from earlier work.
Where [4] appears, read: Microspheres, Vibrational splitting of laminar jet.

On to `CCN(CC)c1ccc2c(-c3ccccc3C(=O)O)c3ccc(=[N+](CC)CC)cc-3oc2c1.[Cl-]` [RhB, rhodamine B], for which the “In vitro drug release” value in data set [1] was more than 4 weeks. In data set [1] (PBS pH 7.4, room temperature), the initial burst release result is “about 1%”. The loading efficiency entry in data set [2] is “approximately 95%”.
As for `O=C(O)c1ccccc1O` [Salicylic acid], the “In vitro drug release” value in data set [3] (setting [4]) is 1 days.
With `CC(C)NCC(O)COc1cccc2ccccc12` (centres unmarked) [propranolol hydrochloride], the “In vitro drug release” value in data set [3] (setting [4]) is on record as 20 days.
For the compound `Cn1c(=O)c2[nH]cnc2n(C)c1=O` [theophylline], the “In vitro drug release” value in data set [3] (Layer-by-layer coatings, Coat drug tablet) is more than 0.33 days.
With Dextran, the “In vitro drug release” value in data set [1] came to 7 days.
With “IGF-I: insulin like growth factor loaded in silk delivery systems”, the “In vitro drug release” value in data set [3] (setting [4]) is reported as more than 7 weeks; in data set [3] (Porous sponge, Drug encapsulated) it was more than 4 weeks.
Consider “Tetramethylrhodamine conjugated bovine serum albumin [TMR-BSA]”, for which the “In vitro drug release” value in data set [1] is on record as more than 4 weeks. The initial burst release result in data set [1] (PBS pH 7.4, room temperature) is “about 1%”. Besides, the loading efficiency result in data set [2] is “about 51%”.
“tetramethylrhodamine conjugated dextran [TMR-dextran]”: in data set [1] (PBS pH 7.4, room temperature, within 2 weeks), the “total loading released within 2 weeks” value is listed as “more than 60%”. In addition, in data set [2], the loading efficiency result is reported as “approximately 1.2%”.
